This note sets out measurements from patent US11419869B2, “Dosage forms and regimens for amino acid compounds” (Pliant Therapeutics, Inc., priority 2019, dated 2022).

This experiment deals with recombinant human integrin αvβ6 (Homo sapiens (Human), UniProt P06756+P18564). Nature of the experiment: Solid Phase Integrin αvβ6 Binding Assay (Examples B1, B2). The settings on record: TGFβ1 LAP ligand, values given in four ranges, read-out: αvβ6 Inhibition IC50 (nM)-range. The method, then: (§1) Microplates were coated with recombinant human integrin αvβ6 (2 μg/mL) in PBS (100 μL/well 25° C., overnight). The coating solution was removed, washed with wash buffer (0.05% Tween 20; 0.5 mM MnCl2; in 1×TBS). The plate was blocked with 200 μL/well of Block Buffer (1% BSA; 5% sucrose; 0.5 mM MnCl2; in 1×TBS) at 37° C. for 2 h. Dilutions of testing compounds and recombinant TGFβ1 LAP (0.67 μg/mL) in binding buffer (0.05% BSA; 2.5% sucrose; 0.5 mM MnCl2; in 1×TBS) were added. The plate was incubated for 2 hours at 25° C., washed, and incubated for 1 hour with Biotin-Anti-hLAP. Bound antibody was detected by peroxidase-conjugated streptavidin. The IC50 values for testing compounds were calculated by four-parameter logistic regression.
The compounds tested were compound samples prepared according to procedures described in the Synthetic Examples section, with the stereochemical purity as indicated in the Examples.
as §1, with “A third series of exemplary compounds was selected for testing in the solid phase integrin αvβ6 binding assay. The compounds tested were compound samples prepared according to procedures described in the Synthetic Examples section, with the stereochemical purity as indicated in the Examples. As in Example B1, microplates were coated” for “Microplates were coated”, “calculated by a four-parameter logistic” for “calculated by four-parameter logistic”

Sequence of recombinant human integrin αvβ6 (P06756 31-992): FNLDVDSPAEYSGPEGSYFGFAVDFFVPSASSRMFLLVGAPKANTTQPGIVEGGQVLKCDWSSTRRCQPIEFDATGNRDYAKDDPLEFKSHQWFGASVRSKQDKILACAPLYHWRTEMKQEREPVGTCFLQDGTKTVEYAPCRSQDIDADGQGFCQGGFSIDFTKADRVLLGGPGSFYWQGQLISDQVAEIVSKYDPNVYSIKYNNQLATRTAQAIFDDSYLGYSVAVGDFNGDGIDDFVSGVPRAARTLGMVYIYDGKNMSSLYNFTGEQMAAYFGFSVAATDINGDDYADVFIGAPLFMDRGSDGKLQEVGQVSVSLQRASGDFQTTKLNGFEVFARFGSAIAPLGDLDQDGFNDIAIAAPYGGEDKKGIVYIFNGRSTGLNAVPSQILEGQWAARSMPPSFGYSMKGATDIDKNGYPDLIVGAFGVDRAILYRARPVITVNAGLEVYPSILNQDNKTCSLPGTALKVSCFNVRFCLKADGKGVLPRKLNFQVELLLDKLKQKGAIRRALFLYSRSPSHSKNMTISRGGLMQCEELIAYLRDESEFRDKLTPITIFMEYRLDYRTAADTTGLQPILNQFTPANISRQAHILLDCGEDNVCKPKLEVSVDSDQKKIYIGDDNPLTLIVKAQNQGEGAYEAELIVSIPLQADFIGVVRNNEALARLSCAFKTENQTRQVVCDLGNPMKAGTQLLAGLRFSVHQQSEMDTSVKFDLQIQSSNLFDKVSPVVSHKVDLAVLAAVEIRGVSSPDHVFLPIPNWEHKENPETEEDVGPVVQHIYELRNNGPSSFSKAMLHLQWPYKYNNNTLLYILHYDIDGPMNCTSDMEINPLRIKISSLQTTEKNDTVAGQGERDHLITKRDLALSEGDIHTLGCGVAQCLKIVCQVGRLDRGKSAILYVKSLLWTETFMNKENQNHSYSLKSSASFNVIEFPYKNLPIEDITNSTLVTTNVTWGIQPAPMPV
Sequence of recombinant human integrin αvβ6 (P18564 22-707): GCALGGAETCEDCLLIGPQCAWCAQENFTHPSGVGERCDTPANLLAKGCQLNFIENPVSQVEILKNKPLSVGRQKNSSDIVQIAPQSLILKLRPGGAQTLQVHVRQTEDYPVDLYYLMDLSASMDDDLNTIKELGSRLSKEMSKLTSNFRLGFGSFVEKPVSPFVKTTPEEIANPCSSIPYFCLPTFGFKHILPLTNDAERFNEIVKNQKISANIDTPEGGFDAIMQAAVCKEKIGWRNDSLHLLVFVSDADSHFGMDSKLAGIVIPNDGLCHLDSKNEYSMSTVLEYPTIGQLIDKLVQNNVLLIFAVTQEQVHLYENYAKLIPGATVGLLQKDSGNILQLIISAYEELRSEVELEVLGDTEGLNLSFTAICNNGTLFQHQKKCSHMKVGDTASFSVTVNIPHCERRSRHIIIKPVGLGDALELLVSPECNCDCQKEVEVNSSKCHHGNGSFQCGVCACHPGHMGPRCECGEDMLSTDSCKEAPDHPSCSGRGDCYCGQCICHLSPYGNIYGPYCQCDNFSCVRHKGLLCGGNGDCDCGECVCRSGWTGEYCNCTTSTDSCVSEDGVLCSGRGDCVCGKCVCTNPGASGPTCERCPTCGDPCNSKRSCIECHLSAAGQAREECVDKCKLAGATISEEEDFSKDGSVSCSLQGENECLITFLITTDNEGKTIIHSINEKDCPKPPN

For the compound `Cc1nc(N[C@@H](CCN(CCCCc2ccc3c(n2)NCCC3)CC2CC(F)(F)C2)C(=O)O)c2ccc(F)cc2n1` [Compound 33, (S)-4-(((3,3-difluorocyclobutyl)methyl) (4-(5,6,7,8-tetrahydro-1,8-naphthyridin-2-yl)butyl)amino)-2-((7-fluoro-2-methylquinazolin-4-yl)amino) butanoic acid], the IC50 is under 50 nM.

For the compound `COCCN(CCCCc1ccc2c(n1)NCCC2)CC[C@H](Nc1nccc2ccccc12)C(=O)O` [Compound 34, (S)-2-(isoquinolin-1-ylamino)-4-((2-methoxyethyl) (4-(5,6,7,8-tetrahydro-1,8-naphthyridin-2-yl)butyl)amino) butanoic acid], the IC50 is over 1000 nM.

For the compound `O=C(O)[C@H](CCN(CCCCc1ccc2c(n1)NCCC2)CCOC(F)F)Nc1ncnc2ccccc12` [Compound 35, (S)-4-((2-(difluoromethoxy)ethyl) (4-(5,6,7,8-tetrahydro-1,8-naphthyridin-2-yl)butyl)amino)-2-(quinazolin-4-ylamino) butanoic acid], the IC50 is under 50 nM.

Consider `COCCN(CCCCc1ccc2c(n1)NCCC2)CC[C@H](Nc1ccnc2ccccc12)C(=O)O` [Compound 36, (S)-4-((2-methoxyethyl) (4-(5,6,7,8-tetrahydro-1,8-naphthyridin-2-yl)butyl)amino)-2-(quinolin-4-ylamino) butanoic acid], for which the IC50 was over 1000 nM.

As to `COCCN(CCCCc1ccc2c(n1)NCCC2)CC[C@H](Nc1ncnc2c(Cl)cccc12)C(=O)O` [Compound 38, (S)-2-((8-chloroquinazolin-4-yl)amino)-4-((2-methoxyethyl) (4-(5,6,7,8-tetrahydro-1,8-naphthyridin-2-yl)butyl)amino) butanoic acid], the IC50 is under 50 nM.

With `O=C(O)[C@H](CCN(CCCCc1ccc2c(n1)NCCC2)CCOCC(F)(F)F)Nc1ncnc2ccccc12` [Compound 39, (S)-2-(quinazolin-4-ylamino)-4-((4-(5,6,7,8-tetrahydro-1,8-naphthyridin-2-yl)butyl) (2-(2,2,2-trifluoroethoxy)ethyl)amino) butanoic acid], the IC50 is under 50 nM.

Take `Cc1nc(N[C@@H](CCN(CCCCc2ccc3c(n2)NCCC3)CCOc2ccc(F)cc2)C(=O)O)c2ccc(F)cc2n1` [Compound 40, (S)-2-((7-fluoro-2-methylquinazolin-4-yl)amino)-4-((2-(4-fluorophenoxy)ethyl) (4-(5,6,7,8-tetrahydro-1,8-naphthyridin-2-yl)butyl)amino) butanoic acid]: the IC50 was under 50 nM.

For the compound `COc1ccc2c(N[C@@H](CCN(CCCF)CCCCc3ccc4c(n3)NCCC4)C(=O)O)ncnc2c1` [Compound 41, (S)-4-((3-fluoropropyl) (4-(5,6,7,8-tetrahydro-1,8-naphthyridin-2-yl)butyl)amino)-2-((7-methoxyquinazolin-4-yl)amino) butanoic acid], the half-maximal inhibitory concentration (IC50) is under 50 nM.

For the compound `Cc1nc(N[C@@H](CCN(CCCCc2ccc3c(n2)NCCC3)CCOC2CC2(F)F)C(=O)O)c2ccc(F)cc2n1` (stereo partly drawn) [Compound 42, (2S)-4-((2-(2,2-difluorocyclopropoxy)ethyl) (4-(5,6,7,8-tetrahydro-1,8-naphthyridin-2-yl)butyl)amino)-2-((7-fluoro-2-methylquinazolin-4-yl)amino) butanoic acid], the IC50 was under 50 nM.

For `COc1cccc2c(N[C@@H](CCN(CCCF)CCCCc3ccc4c(n3)NCCC4)C(=O)O)ncnc12` [Compound 43, (S)-4-((3-fluoropropyl) (4-(5,6,7,8-tetrahydro-1,8-naphthyridin-2-yl)butyl)amino)-2-((8-methoxyquinazolin-4-yl)amino) butanoic acid], the IC50 is under 50 nM.

On to `COCCN(CCCCc1ccc2c(n1)NCCC2)CC[C@H](Nc1cc(-n2cccn2)ncn1)C(=O)O` [Compound 44, (S)-2-((6-(1H-pyrazol-1-yl)pyrimidin-4-yl)amino)-4-((2-methoxyethyl) (4-(5,6,7,8-tetrahydro-1,8-naphthyridin-2-yl)butyl)amino) butanoic acid], for which the IC50 was under 50 nM.

For the compound `Cc1cc(C)n(CCN(CCCCc2ccc3c(n2)NCCC3)CC[C@H](Nc2ncnc3ccccc23)C(=O)O)n1` [Compound 45, (S)-4-((2-(3,5-dimethyl-1H-pyrazol-1-yl)ethyl) (4-(5,6,7,8-tetrahydro-1,8-naphthyridin-2-yl)butyl)amino)-2-(quinazolin-4-ylamino) butanoic acid], the IC50 was under 50 nM.

Take `COC[C@@H](F)CN(CCCCc1ccc2c(n1)NCCC2)CC[C@H](Nc1nc(C)nc2ccccc12)C(=O)O` [Compound 46, (S)-4-(((S)-2-fluoro-3-methoxypropyl) (4-(5,6,7,8-tetrahydro-1,8-naphthyridin-2-yl)butyl)amino)-2-((2-methylquinazolin-4-yl)amino) butanoic acid]: the IC50 is under 50 nM.

Take `O=C(O)[C@H](CCN(CCCCc1ccc2c(n1)NCCC2)CCOc1cc(F)cc(F)c1)Nc1ncnc2ccccc12` [Compound 47, (S)-4-((2-(3,5-difluorophenoxy)ethyl) (4-(5,6,7,8-tetrahydro-1,8-naphthyridin-2-yl)butyl)amino)-2-(quinazolin-4-ylamino) butanoic acid]: the IC50 is under 50 nM.

On to `O=C(O)[C@H](CCN(CCCCc1ccc2c(n1)NCCC2)CCOc1ccccn1)Nc1ncnc2c(Cl)cccc12` [Compound 48, (S)-2-((8-chloroquinazolin-4-yl)amino)-4-((2-(pyridin-2-yloxy)ethyl) (4-(5,6,7,8-tetrahydro-1,8-naphthyridin-2-yl)butyl)amino) butanoic acid], for which the IC50 was under 50 nM.

For `O=C(O)[C@H](CCN(CCCCc1ccc2c(n1)NCCC2)CCOc1ccccn1)Nc1ncnc2ccccc12` [Compound 49, (S)-4-((2-(pyridin-2-yloxy)ethyl) (4-(5,6,7,8-tetrahydro-1,8-naphthyridin-2-yl)butyl)amino)-2-(quinazolin-4-ylamino) butanoic acid], the IC50 was under 50 nM.

Turning to `O=C(O)[C@H](CCN(CCCCc1ccc2c(n1)NCCC2)CCOCC(F)F)Nc1ncnc2ccccc12` [Compound 50, (S)-4-((2-(2,2-difluoroethoxy)ethyl) (4-(5,6,7,8-tetrahydro-1,8-naphthyridin-2-yl)butyl)amino)-2-(quinazolin-4-ylamino) butanoic acid], the IC50 is under 50 nM.

As to `O=C(O)[C@H](CCN(CCCCc1ccc2c(n1)NCCC2)CCOCC(F)(F)F)Nc1ncnc2cccnc12` [Compound 51, (S)-2-(pyrido[3,2-d]pyrimidin-4-ylamino)-4-((4-(5,6,7,8-tetrahydro-1,8-naphthyridin-2-yl)butyl) (2-(2,2,2-trifluoroethoxy)ethyl)amino) butanoic acid], the IC50 is under 50 nM.

Take `Cc1ncccc1OCCN(CCCCc1ccc2c(n1)NCCC2)CC[C@H](Nc1ncnc2ccccc12)C(=O)O` [Compound 52, (S)-4-((2-((2-methylpyridin-3-yl)oxy)ethyl) (4-(5,6,7,8-tetrahydro-1,8-naphthyridin-2-yl)butyl)amino)-2-(quinazolin-4-ylamino) butanoic acid]: the IC50 was under 50 nM.

`Cc1nc(N[C@@H](CCN(CCCCc2ccc3c(n2)NCCC3)CCOc2cccnc2C)C(=O)O)c2ccc(F)cc2n1` [Compound 53, (S)-2-((7-fluoro-2-methylquinazolin-4-yl)amino)-4-((2-((2-methylpyridin-3-yl)oxy)ethyl) (4-(5,6,7,8-tetrahydro-1,8-naphthyridin-2-yl)butyl)amino) butanoic acid]: the IC50 was under 50 nM.
